Like-named read-outs stand apart in the source and are kept apart here.
How the values were obtained:
[1] = tested on: convulsions induced by pentetrazole; assay: animal or person; conditions: for ED50: Mus musculus, read-out: ED50 in respect of convulsions induced by PTZ, per os, male mice, 30 min after administration, pentetrazole 125 mg/kg i.p., dose protecting 50% of animals; for ED50 / ED50 in respect of convulsions induced by PTZ: 0.5 h; for therapeutic indices compared with reference products: in words, PTZ and MCE, reference: sodium valproate and trimethadione
Excerpt: (§1) The anticonvulsant properties were investigated on male mice, thirty minutes after the oral administration of the substances to be studied, by the induction of convulsive seizures.

[2] = oral toxicity in mice (LD50, mortality over 14 days); conditions: mouse, in vivo, po
Method: (§2) The toxicity of the products to be studied was investigated by the oral administration, using an esophageal tube, of each of the said products to male mice with a body weight of 18 to 22 g, divided into groups each containing 10 to 20 animals. The mortality was recorded over a 14-day period.

[3] = tested on: convulsions induced by supra maximal electroshock (MCE); assay: animal or person; conditions: for ED50: Mus musculus, read-out: ED50 in respect of convulsions induced by MCE, per os, male mice, 30 min after administration, electrical stimulation of the cornea, dose protecting 50% of animals; for ED50 / ED50 in respect of convulsions induced by MCE: 0.5 h
Method: as §1
These seizures are caused either by the intraperitoneal injection of pentetrazole (125 mg/kg) or by electrical stimulation of the cornea (supra maximal electroshock, abbreviated to MCE).

[4] = tested on: male mice; assay: in vivo; format: in vivo
Excerpt: (§3) The animals (divided into groups each containing ten male mice per dose and per product) are installed on the rod and their fall is observed over the next two minutes.

[5] = in vivo; format: in vivo; conditions: mouse, po, per os, male mice, Rota-rod 30 min after administration, dose causing 50% of animals to fall, read-out: TD50 (50% neurotoxic dose)
Excerpt: as §3

[6] = tested on: male mice; assay: oral toxicity in mice (LD50, mortality over 14 days); conditions: oral (esophageal tube), male mice, groups of 10 to 20, 14 days; Table II
Method: as §2

[7] = LD50 per os/ED50 per os, PTZ convulsions
[8] = LD50, oral (esophageal tube), male mice, groups of 10 to 20, 14 days, Table II
[9] = LD50, per os, male mice, repeated in Table IV
[10] = LD50 per os/ED50 per os, MCE convulsions
[11] = TD50 per os/ED50 per os, MCE convulsions
[12] = TD50 per os/ED50 per os, PTZ convulsions

**Q.** For `Cl.Cl.O=C(c1cccnc1)N1CCN(c2cccc(C(F)(F)F)c2)CC1` [Ex. 1, 1-nicotinoyl-4-(3-trifluoromethylphenyl)piperazine dihydrochloride], which “Therapeutic index PTZ (LD50/ED50)” value [1, 7] is on record?
**A.** 33.8

**Q.** And the ED50 ([1]; po)?
**A.** 17 mg/kg

**Q.** And the “therapeutic indices compared with reference products” value [1]?
**A.** better than those of the reference products

**Q.** And the LD50 at 336 h [2, 8]?
**A.** 575 mg/kg

**Q.** What about the LD50 at 336 h [2, 9] of the same compound?
**A.** 575 mg/kg

**Q.** What about the “Therapeutic index MCE (LD50/ED50)” value [3, 10] of the same compound?
**A.** 30.2

**Q.** What about the ED50 ([3]; po) of the same compound?
**A.** 19 mg/kg

**Q.** And the “Protection index MCE (TD50/ED50)” value [4, 11]?
**A.** 8.1

**Q.** What about the “Protection index PTZ (TD50/ED50)” value [4, 12] of the same compound?
**A.** 9.1

**Q.** What about the “protection indices compared with reference products” value ([4]; mouse, in vivo) of the same compound?
**A.** better than those of the reference products

**Q.** What about the TD50 at 0.5 h ([5]; rota-rod) of the same compound?
**A.** 154 mg/kg

**Q.** With `O=C(c1cccnc1)N1CCN(c2cccc(Cl)c2)CC1` [Ex. 2, 4-(3-chlorophenyl)-1-nicotinoylpiperazine] as the compound, how does the ED50 ([1]; po) read?
**A.** 50 mg/kg

**Q.** What about the LD50 at 336 h [2, 8] of the same compound?
**A.** 501 mg/kg

**Q.** And the ED50 ([3]; po)?
**A.** 78 mg/kg

**Q.** Which ED50 ([1]; po) does the source give for `Cc1cccc(N2CCN(C(=O)c3cccnc3)CC2)c1C` [Ex. 3] here?
**A.** 110 mg/kg

**Q.** What about the LD50 at 336 h [2, 8] of the same compound?
**A.** > 1000 mg/kg

**Q.** What about the ED50 ([3]; po) of the same compound?
**A.** > 200 mg/kg

**Q.** Which ED50 ([1]; po) does the source give for `O=C(c1cccnc1)N1CCN(c2ccccc2Cl)CC1` [Ex. 4] here?
**A.** 160 mg/kg

**Q.** What about the LD50 at 336 h [2, 8] of the same compound?
**A.** > 1000 mg/kg

**Q.** What about the ED50 ([3]; po) of the same compound?
**A.** 200 mg/kg

**Q.** What does the source list for `CCOc1ccccc1N1CCN(C(=O)c2cccnc2)CC1` [Ex. 5]?
**A.** ED50 ([1]; po): > 200 mg/kg; LD50 at 336 h [2, 8]: 1000 mg/kg; ED50 ([3]; po): > 200 mg/kg

**Q.** Which “Therapeutic index PTZ (LD50/ED50)” value [1, 7] does the source give for `O=C(c1cccnc1)N1CCN(c2cccc(C(F)(F)F)c2)CC1` [Ex. 6, 1-nicotinoyl-4-(3-trifluoromethylphenyl)piperazine] here?
**A.** 32.5

**Q.** And the ED50 ([1]; po)?
**A.** 13 mg/kg

**Q.** And the “therapeutic indices compared with reference products” value [1]?
**A.** better than those of the reference products

**Q.** And the LD50 at 336 h [2, 8]?
**A.** 422 mg/kg

**Q.** And the LD50 at 336 h [2, 9]?
**A.** 422 mg/kg

**Q.** And the “Therapeutic index MCE (LD50/ED50)” value [3, 10]?
**A.** 21.1

**Q.** And the ED50 ([3]; po)?
**A.** 20 mg/kg

**Q.** And the “Protection index MCE (TD50/ED50)” value [4, 11]?
**A.** 6.0

**Q.** And the “Protection index PTZ (TD50/ED50)” value [4, 12]?
**A.** 9.1

**Q.** What about the “protection indices compared with reference products” value ([4]; mouse, in vivo) of the same compound?
**A.** better than those of the reference products

**Q.** And the TD50 at 0.5 h ([5]; rota-rod)?
**A.** 119 mg/kg

**Q.** Which ED50 ([1]; po) does the source give for `O=C(c1cccnc1)N1CCN(c2ccc(C(F)(F)F)cc2)CC1` [Ex. 7] here?
**A.** > 200 mg/kg

**Q.** What about the LD50 at 336 h [2, 8] of the same compound?
**A.** > 1000 mg/kg

**Q.** What about the ED50 ([3]; po) of the same compound?
**A.** > 200 mg/kg

**Q.** What does the source list for `O=C(c1cccnc1)N1CCN(c2ccccc2F)CC1` [Ex. 8]?
**A.** Therapeutic index PTZ (LD50/ED50) [1, 7]: 5.6; ED50 ([1]; po): 180 mg/kg; LD50 at 336 h [2, 8]: 1000 mg/kg; LD50 at 336 h [2, 9]: 1000 mg/kg; Therapeutic index MCE (LD50/ED50) [3, 10]: 5.6; ED50 ([3]; po): 180 mg/kg; Protection index MCE (TD50/ED50) ([4]; mouse, in vivo, po): 2.8; Protection index PTZ (TD50/ED50) ([4]; mouse, in vivo, po): 2.8; TD50 at 0.5 h ([5]; rota-rod): 500 mg/kg

**Q.** Which “ED50 in respect of convulsions induced by PTZ” value ([1]; po) does the source give for `O=C(c1cccnc1)N1CCN(c2ccccc2F)CC1` [Ex. 9] here?
**A.** > 200 mg/kg

**Q.** And the LD50 [6]?
**A.** > 1000 mg/kg

**Q.** What about the “ED50 in respect of convulsions induced by MCE” value ([3]; po) of the same compound?
**A.** > 200 mg/kg

**Q.** With `O=C(c1cccnc1)N1CCN(c2ccc(F)cc2)CC1` [Ex. 10, 4-(4-fluorophenyl)-1-nicotinoylpiperazine] as the compound, how does the ED50 ([1]; po) read?
**A.** 62 mg/kg

**Q.** And the LD50 at 336 h [2, 8]?
**A.** 600 mg/kg

**Q.** What about the ED50 ([3]; po) of the same compound?
**A.** 75 mg/kg

**Q.** With `O=C(c1cccnc1)N1CCN(c2ccc(F)cc2)CC1` [Ex. 11, 4-(4-fluorophenyl)-1-nicotinoylpiperazine] as the compound, how does the “ED50 in respect of convulsions induced by PTZ” value ([1]; po) read?
**A.** 68 mg/kg

**Q.** What about the LD50 at 336 h [2] of the same compound?
**A.** 625 mg/kg

**Q.** And the “ED50 in respect of convulsions induced by MCE” value ([3]; po)?
**A.** 75 mg/kg

**Q.** With `O=C(c1cccnc1)N1CCN(c2ccccc2C(F)(F)F)CC1` [Ex. 12] as the compound, how does the ED50 ([1]; po) read?
**A.** > 200 mg/kg

**Q.** What about the LD50 at 336 h [2, 8] of the same compound?
**A.** > 1000 mg/kg

**Q.** What about the ED50 ([3]; po) of the same compound?
**A.** > 200 mg/kg

**Q.** For `Cc1ccccc1N1CCN(C(=O)c2cccnc2)CC1` [Ex. 13], which “Therapeutic index PTZ (LD50/ED50)” value [1, 7] is on record?
**A.** 6.2

**Q.** What about the ED50 ([1]; po) of the same compound?
**A.** 161 mg/kg

**Q.** What about the LD50 at 336 h [2] of the same compound?
**A.** 1000 mg/kg

**Q.** What about the “Therapeutic index MCE (LD50/ED50)” value [3, 10] of the same compound?
**A.** 5.0

**Q.** What about the ED50 ([3]; po) of the same compound?
**A.** 200 mg/kg

**Q.** What about the “Protection index MCE (TD50/ED50)” value [4, 11] of the same compound?
**A.** 4.0

**Q.** And the “Protection index PTZ (TD50/ED50)” value [4, 12]?
**A.** 4.9

**Q.** What about the TD50 at 0.5 h ([5]; in vivo) of the same compound?
**A.** 800 mg/kg

**Q.** What does the source list for `Cc1ccccc1N1CCN(C(=O)c2cccnc2)CC1` [Ex. 14]?
**A.** Therapeutic index PTZ (LD50/ED50) ([1]; mouse, in vivo, po): > 10.0; ED50 in respect of convulsions induced by PTZ ([1]; po): 107 mg/kg; LD50 at 336 h [2, 8]: > 1000 mg/kg; LD50 at 336 h [2, 9]: > 1000 mg/kg; Therapeutic index MCE (LD50/ED50) ([3]; mouse, in vivo, po): < 5.0; ED50 in respect of convulsions induced by MCE ([3]; po): > 200 mg/kg; Protection index MCE (TD50/ED50) ([4]; mouse, in vivo, po): < 3.0; Protection index PTZ (TD50/ED50) ([4]; mouse, in vivo, po): 5.9; TD50 at 0.5 h ([5]; rota-rod): 635 mg/kg

From patent US4880807A, “Nicotinoylpiperazines useful for treatment of convulsions” (Institut De Recherches Chimiques et Biologiques Appliquees …, priority 1987, dated 1989)
